Assay results from paper PMC4595804, “A strategy to discover decoy chemokine ligands with an anti-inflammatory activity” (Scientific Reports, 2015).

Target: T1, mouse CCL22 (Mus musculus, UniProt O88430)
T1 construct: purchased R&D systems
Assay: Calcium responses induced by mouse CCL22, neutraligand protocol, CCR4+Gqi5+ HEK cells
Assay type: cell-based
Settings: 5 nM mouse CCL22 preincubated 1 h with compound; read-out: IC50, inhibition of mouse CCL22-evoked calcium responses
Description: Dye loaded cells were placed in the FlexStation 3 (Molecular Devices). Calcium mobilization was measured at 401 and 475 nm emission fluorescence after excitation at 355 nm. For the primary screening, the ligands (50μl of chemokine mixed with DMSO or test compounds) were added to the cells at 40 s, followed by digitonin addition (50μl) at 100 s to the cells. Molecules were screened at a final concentration of 2μg/ml with 5 nM CCL17 or CCL22. […] Raw fluorescence data (at 401 and 475 nm) were exported and the ratio 401/475 was calculated. The calcium response values (height of peak response over baseline) were determined. Hits were selected by comparing the response amplitude at the time of the chemokine addition ± test compound. The Z’ factor[29] was calculated according to the following equation: Z’ = 1-(3SD+ + 3SD−)/|Ave+ − Ave−|, where SD+ and Ave+ are respectively the standard deviation and the mean value of the positive controls (chemokine + DMSO), while SD− and Ave− are respectively the standard deviation and the mean value of the negative controls (HEPES-BSA (0.1%) mixed with DMSO, or cells mixed with C-021). Hit molecules were confirmed by performing concentration-response curves and their half maximal inhibitory concentration (IC50) values were calculated using the Kaleidagraph software. […]
neutraligand. Human (○) or mouse (●) CCL17 (5nM) was preincubated with increasing […]

T1 sequence (O88430 25-92): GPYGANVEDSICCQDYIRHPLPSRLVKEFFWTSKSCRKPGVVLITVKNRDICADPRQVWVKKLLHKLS

- IC50: 8.1 ± 1.5 µM
SMILES: O=C(OCC(O)CO)c1ccccc1O (stereo not shown) [GPN136, 2,3-dihydroxypropyl 2-hydroxybenzoate]
